According to PMC11096667 (Cell reports, 2024):

Columns and labels:
TRPM7 = conditions: cited from earlier work
TRPM6 = conditions: cited from earlier work
cryo-EM structure = biological target: the molecule itself; test: cryo-EM structure

## c1ccc2c(c1)CCC[C@H]2Nc1nc2ccccc2[nH]1 [NS8593]
TRPM7
  inhibition of TRPM7: inhibits
TRPM6
  inhibition of TRPM6: inhibits

## N#Cc1ccc(COC[C@H]2O[C@@H](n3c(NCc4ccc(Cl)c(Cl)c4)nc4c(N)ncnc43)[C@H](O)[C@@H]2O)cc1 [VER155008]
TRPM7
  inhibition of TRPM7: potent inhibitor
TRPM6
  activity against TRPM6: inactive

B1: C-terminally truncated mouse TRPM7 (residues 1-1280) (domain or fragment, UniProt Q923J1 1-1280, looked up)
chain: MSQKSWIESTLTKRECVYIIPSSKDPHRCLPGCQICQQLVRCFCGRLVKQHACFTASLAMKYSDVKLGEHFNQAIEEWSVEKHTEQSPTDAYGVINFQGGSHSYRAKYVRLSYDTKPEIILQLLLKEWQMELPKLVISVHGGMQKFELHPRIKQLLGKGLIKAAVTTGAWILTGGVNTGVAKHVGDALKEHASRSSRKICTIGIAPWGVIENRNDLVGRDVVAPYQTLLNPLSKLNVLNNLHSHFILVDDGTVGKYGAEVRLRRELEKTINQQRIHARIGQGVPVVALIFEGGPNVILTVLEYLQESPPVPVVVCEGTGRAADLLAYIHKQTEEGGNLPDAAEPDIISTIKKTFNFGQSEAVHLFQTMMECMKKKELITVFHIGSEDHQDIDVAILTALLKGTNASAFDQLILTLAWDRVDIAKNHVFVYGQQWLVGSLEQAMLDALVMDRVSFVKLLIENGVSMHKFLTIPRLEELYNTKQGPTNPMLFHLIRDVKQGNLPPGYKITLIDIGLVIEYLMGGTYRCTYTRKRFRLIYNSLGGNNRRSGRNTSSSTPQLRKSHETFGNRADKKEKMRHNHFIKTAQPYRPKMDASMEEGKKKRTKDEIVDIDDPETKRFPYPLNELLIWACLMKRQVMARFLWQHGEESMAKALVACKIYRSMAYEAKQSDLVDDTSEELKQYSNDFGQLAVELLEQSFRQDETMAMKLLTYELKNWSNSTCLKLAVSSRLRPFVAHTCTQMLLSDMWMGRLNMRKNSWYKVILSILVPPAILMLEYKTKAEMSHIPQSQDAHQMTMEDSENNFHNITEEIPMEVFKEVKILDSSDGKNEMEIHIKSKKLPITRKFYAFYHAPIVKFWFNTLAYLGFLMLYTFVVLVKMEQLPSVQEWIVIAYIFTYAIEKVREVFMSEAGKISQKIKVWFSDYFNVSDTIAIISFFVGFGLRFGAKWNYINAYDNHVFVAGRLIYCLNIIFWYVRLLDFLAVNQQAGPYVMMIGKMVANMFYIVVIMALVLLSFGVPRKAILYPHEEPSWSLAKDIVFHPYWMIFGEVYAYEIDVCANDSTLPTICGPGTWLTPFLQAVYLFVQYIIMVNLLIAFFNNVYLQVKAISNIVWKYQRYHFIMAYHEKPVLPPPLIILSHIVSLFCCVCKRRKKDKTSDGPKLFLTEEDQKKLHDFEEQCVEMYFDEKDDKFNSGSEERIRVTFERVEQMSIQIKEVGDRVNYIKRSLQSLDSQIGHLQDLSALTVDTLKTLTAQKASEASKVHNEITRELSISKHLAQNLID
cryo-EM structure
  stoichiometry N: 4
